In data set [1] the test system is Escherichia coli ATCC 25922. Kind of data set: Minimal Inhibitory Concentration (MIC) assay, Escherichia coli ATCC 25922. The class given is cell-based. Conditions: ATCC25922, 20 h, read-out: MIC Escherichia coli ATCC25922. As for the experimental part: (§1) The antibacterial activity of the compounds of the present invention was evaluated against the commonly used quality control strain Escherichia coli ATCC 25922 and the rifampin-resistant mutant strain Klebsiella pneumonia ATCC 43816. Both were originally derived from human clinical samples and are available from ATCC (American Type Culture Collection). The in vitro potency of compounds to inhibit Escherichia coli (ATCC 25922) and Klebsiella pneumonia (ATCC 43816) growth was assessed by the MIC (Minimal Inhibitory Concentration) broth dilution method. Specifically compound dilutions were prepared from 10 mM DMSO stock solutions as follows: i) serial 2-fold dilution in 20 μL DMSO were prepared in a master plate (Greiner, Cat No: 651201), ii) 180 μL sterile distilled water was added to each aliquot and iii) 10 μL diluted compounds were transferred into a new assay plate (Costar, 3599).
(§2) Vials of each test microorganisms were maintained frozen in the vapor phase of a liquid nitrogen freezer. Single-use frozen vials of the two strains Escherichia coli ATCC 25922 (KWIKSTIK, 0335K) and Klebsiella pneumonia ATCC 43816, with predetermined CFU/mL, were taken out from the freezer, thawed at room temperature, and diluted in Cation-Adjusted Mueller Hinton Broth (CAMHB) to achieve a final inoculum of 5×10^5 CFU/mL. 90 μL bacteria containing broth was dispensed to the assay plate containing the pre-dispensed compound dilutions and mixed by pipetting 5 times.
(§3) Then the assay plates were incubated for 20 hours at 35° C. in ambient air. Following incubation, the MIC (μg/mL), the lowest concentration of drug that inhibits visible growth of the microorganism was read with the help of a magnification mirror and recorded.

Data set [2] deals with Klebsiella pneumonia ATCC 43816. Kind of data set: Minimal Inhibitory Concentration (MIC) assay, Klebsiella pneumonia ATCC 43816. The class given is cell-based. The settings on record: Klebsiella pneumoniae, ATCC43816, 20 h, read-out: MIC Klebsiella pneumoniae ATCC43816. Here is the method:
as §1, §2, §3

The nature of data set [3]: Human Microsome Stability Assay. The class given is in vitro ADME. Conditions: 1 μM compound, 0.5 mg/mL liver microsomal protein, 1 mM NADPH, pH 7.4, 37° C., 0-30 minutes; for CLint scaled at 1 µM: human, liver microsomes, read-out: Clearance of Human microsome. Here is the method:
The human microsomal stability assay is used for early assessment of metabolic stability of compounds of present invention in human liver microsomes. Human liver microsomes (Cat. NO.: 452117, Corning, USA) were pre-incubated with test compound for 10 minutes at 37° C. in 100 mM potassium phosphate buffer, pH 7.4. The reactions were initiated by adding NADPH regenerating system. The final incubation mixtures contained 1 μM compound, 0.5 mg/mL liver microsomal protein, 1 mM MgCl2 and 1 mM NADPH in 100 mM potassium phosphate buffer, pH 7.4. After incubation times of 0, 3, 6, 9, 15 and 30 minutes at 37° C., 300 μL of cold acetonitrile (including internal standard) was added to 100 μL incubation mixture to terminate the reaction. Following precipitation and centrifugation, the amount of compound remaining in the samples were determined by LC-MS/MS. Controls of no NADPH regenerating system at zero and 30 minutes were also prepared and analyzed.
Background: Liver microsomes are vesicles of endoplasmic reticulum, rich in cytochrome P450 enzymes.

Consider 16 compounds from US20260308172A1, “TRICYCLIC COMPOUNDS FOR TREATMENT OF BACTERIAL INFECTIONS” (priority 2023, published 2026).

≈ marks a conversion by molar mass, not a printed value.

One may read the MIC as the least concentration at which growth counts as inhibited. As to `Cc1cc(C(F)(F)F)nc(N2CCN(S(=O)(=O)c3ccc4c(c3)OC[C@H]3[C@H](CN)OC(=O)N43)CC2)n1` (relative stereo) [Example 002], the MIC in data set [1] was 0.66 µg/mL (≈ 1.25 µM); in data set [2] it was 1.32 µg/mL (≈ 2.5 µM). Besides, the CLint scaled at 1 µM in data set [3] came out at 10 mL/min/kg.
On to `Cc1cc(C(F)(F)F)nc(N2CCN(S(=O)(=O)c3ccc4c(c3)OC[C@H]3[C@@H](CN)OC(=O)N43)CC2)n1` (relative stereo) [Example 006], for which the MIC in data set [1] came out at 0.44 µg/mL (≈ 0.833 µM); in data set [2], 0.88 µg/mL (≈ 1.67 µM). In addition, in data set [3], the CLint scaled at 1 µM was 12.5 mL/min/kg.
As to `NC[C@H]1OC(=O)N2c3ccc(S(=O)(=O)N4CCN(c5cc(C(F)(F)F)cc(Cl)n5)CC4)cc3OC[C@@H]12` (relative stereo) [Example 007], the minimum inhibitory concentration (MIC) in data set [1] amounted to 0.46 µg/mL (≈ 0.84 µM); in data set [2], 0.91 µg/mL (≈ 1.66 µM). In addition, in data set [3], the CLint scaled at 1 µM turned out to be 9.6 mL/min/kg.
For the compound `NC[C@H]1OC(=O)N2c3ccc(S(=O)(=O)N4CCN(c5cc(C(F)(F)C6CCCNC6)cc(Cl)n5)CC4)cc3OC[C@H]12` (relative stereo) [Example 009], the MIC in data set [1] and in data set [2] was 0.66 µg/mL (≈ 1.08 µM) throughout. The “Clearance of Human microsome” value in data set [3] was determined as 6.2 mL/min/kg.
Consider `O=C1O[C@H](CO)[C@@H]2COc3cc(S(=O)(=O)N4CCN(c5cc(C(F)(F)C6CCCNC6)cc(Cl)n5)CC4)ccc3N12` (relative stereo) [Example 033], for which the MIC in data set [1] was 1 µg/mL (≈ 1.63 µM); in data set [2] it was 1.55 µg/mL (≈ 2.52 µM). Further, the CLint scaled at 1 µM in data set [3] was found to be 13.6 mL/min/kg.
Consider `NCCCNC(=O)[C@H]1CC[C@H](C(F)(F)c2cc(Cl)nc(N3CCN(S(=O)(=O)c4ccc5c(c4)OC[C@@H]4[C@H](CN)OC(=O)N54)CC3)c2)CC1` (stereo in doubt) [Example 047, 4-[[2-[4-[[cis-3-(aminomethyl)-1-oxo-3a,4-dihydro-3H-oxazolo[4,3-c][1,4]benzoxazin-7-yl]sulfonyl]piperazin-1-yl]-6-chloro-4-pyridyl]-difluoro-methyl]-N-(3-aminopropyl)cyclohexanecarboxamide], for which the MIC in data set [1] amounted to 0.58 µg/mL (≈ 0.814 µM); in data set [2], 0.59 µg/mL (≈ 0.828 µM). Further, the CLint scaled at 1 µM in data set [3] was determined as 7 mL/min/kg.
Take `NC[C@H]1OC(=O)N2c3ccc(S(=O)(=O)N4CCN(c5cc(C(F)(F)[C@H]6CNCCO6)cc(Cl)n5)CC4)cc3OC[C@H]12` [Example 024, (3R,3aR)-3-(aminomethyl)-7-[4-[6-chloro-4-[difluoro-[(2R)-morpholin-2-yl]methyl]-2-pyridyl]piperazin-1-yl]sulfonyl-3a,4-dihydro-3H-oxazolo[4,3-c][1,4]benzoxazin-1-one]: the MIC in data set [1] worked out at 0.66 µg/mL (≈ 1.07 µM); in data set [2], 1.32 µg/mL (≈ 2.15 µM).
On to `O=C1CCC2COc3cc(S(=O)(=O)N4CCN(c5cc(C(F)(F)[C@H]6CNCCO6)cc(Cl)n5)CC4)ccc3N12` (stereo partly drawn) [Example 030, 7-[4-[6-Chloro-4-[difluoro-[(2R)-morpholin-2-yl]methyl]-2-pyridyl]piperazin-1-yl]sulfonyl-2,3,3a,4-tetrahydropyrrolo[2,1-c][1,4]benzoxazin-1-one], for which the MIC worked out at 0.49 µg/mL (≈ 0.839 µM) in data set [1] and 0.492 µg/mL (≈ 0.842 µM) in data set [2].
For the compound `NC1CC(=O)N2c3ccc(S(=O)(=O)N4CCN(c5cc(C(F)(F)[C@H]6CNCCO6)cc(Cl)n5)CC4)cc3OCC12` (stereo partly drawn) [Example 031, 3-Amino-7-[4-[6-chloro-4-[difluoro-[(2R)-morpholin-2-yl]methyl]-2-pyridyl]piperazin-1-yl]sulfonyl-2,3,3a,4-tetrahydropyrrolo[2,1-c][1,4]benzoxazin-1-one], the MIC in data set [1] came to 0.25 µg/mL (≈ 0.417 µM); in data set [2], 1.01 µg/mL (≈ 1.68 µM).
Regarding `O=C1O[C@@H](CO)[C@H]2COc3cc(S(=O)(=O)N4CCN(c5cc(C(F)(F)C67CNCC6C7)cc(Cl)n5)CC4)ccc3N12` (stereo partly drawn) [Example 036, (3R,3aR)-7-[4-[4-[3-azabicyclo[3.1.0]hexan-1-yl(difluoro)methyl]-6-chloro-2-pyridyl]piperazin-1-yl]sulfonyl-3-(hydroxymethyl)-3a,4-dihydro-3H-oxazolo[4,3-c][1,4]benzoxazin-1-one], the MIC in data set [1] and in data set [2] was 0.14 µg/mL (≈ 0.229 µM) in each case.
For the compound `CC1COC(C(F)(F)c2cc(Cl)nc(N3CCN(S(=O)(=O)c4ccc5c(c4)OC[C@H]4[C@H](CO)OC(=O)N54)CC3)c2)CN1` (stereo partly drawn) [Example 040, (3R,3aS)-7-[4-[6-chloro-4-[difluoro-(5-methylmorpholin-2-yl)methyl]-2-pyridyl]piperazin-1-yl]sulfonyl-3-(hydroxymethyl)-3a,4-dihydro-3H-oxazolo[4,3-c][1,4]benzoxazin-1-one], the MIC in data set [1] and in data set [2] was 0.29 µg/mL (≈ 0.46 µM) each time.
`CC(N)C(=O)N1CC(C(F)(F)c2cc(Cl)nc(N3CCN(S(=O)(=O)c4ccc5c(c4)OC[C@@H]4[C@H](CO)OC(=O)N54)CC3)c2)C1` (stereo partly drawn) [Example 041, (3R,3aR)-7-[4-[4-[[1-(2-aminopropanoyl)azetidin-3-yl]-difluoro-methyl]-6-chloro-2-pyridyl]piperazin-1-yl]sulfonyl-3-(hydroxymethyl)-3a,4-dihydro-3H-oxazolo[4,3-c][1,4]benzoxazin-1-one]: the minimal inhibitory concentration (MIC) in data set [1] and in data set [2] was 2.4 µg/mL (≈ 3.65 µM) throughout.
Regarding `NC(=O)CN1CCC(C(F)(F)c2cc(Cl)nc(N3CCN(S(=O)(=O)c4ccc5c(c4)OC[C@@H]4[C@H](CO)OC(=O)N54)CC3)c2)CC1` [Example 056, 2-[4-[[2-[4-[[(3R,3aR)-3-(hydroxymethyl)-1-oxo-3a,4-dihydro-3H-oxazolo[4,3-c][1,4]benzoxazin-7-yl]sulfonyl]piperazin-1-yl]-6-chloro-4-pyridyl]-difluoro-methyl]-1-piperidyl]acetamide], the results for the MIC in data set [1] and in data set [2] were 0.31 µg/mL (≈ 0.462 µM) and 0.23 µg/mL (≈ 0.343 µM), respectively.
For `C[N@@+]1(CC(N)=O)CCC[C@H]1C(=O)N[C@H]1CC[C@H](C(F)(F)c2cc(Cl)nc(N3CCN(S(=O)(=O)c4ccc5c(c4)OC[C@@H]4[C@H](CO)OC(=O)N54)CC3)c2)CC1` [Example 058, (1S,2S)—N-[4-[[2-[4-[[(3R,3aR)-3-(hydroxymethyl)-1-oxo-3a,4-dihydro-3H-oxazolo[4,3-c][1,4]benzoxazin-7-yl]sulfonyl]piperazin-1-yl]-6-chloro-4-pyridyl]-difluoro-methyl]cyclohexyl]-1-(2-amino-2-oxo-ethyl)-1-methyl-pyrrolidin-1-ium-2-carboxamide;chloride], the minimal inhibitory concentration (MIC) came out at 1.3 µg/mL in data set [1] and 1.32 µg/mL in data set [2].
Consider `C[N@+]1(CC(N)=O)CCC[C@H]1C(=O)N[C@H]1CC[C@H](C(F)(F)c2cc(Cl)nc(N3CCN(S(=O)(=O)c4ccc5c(c4)OC[C@@H]4[C@H](CO)OC(=O)N54)CC3)c2)CC1` [Example 059, (1R,2S)—N-[4-[[2-[4-[[(3R,3aR)-3-(hydroxymethyl)-1-oxo-3a,4-dihydro-3H-oxazolo[4,3-c][1,4]benzoxazin-7-yl]sulfonyl]piperazin-1-yl]-6-chloro-4-pyridyl]-difluoro-methyl]cyclohexyl]-1-(2-amino-2-oxo-ethyl)-1-methyl-pyrrolidin-1-ium-2-carboxamide;chloride], for which the MIC in data set [1] and in data set [2] was 0.66 µg/mL in each case.
On to `NCC[N+]1(CCNC(=O)[C@H]2CC[C@H](C(F)(F)c3cc(Cl)nc(N4CCN(S(=O)(=O)c5ccc6c(c5)OC[C@H]5[C@H](CO)OC(=O)N65)CC4)c3)CC2)CCCC1.[Cl-]` [Example 064, 4-[[2-[4-[[(3R,3aS)-3-(hydroxymethyl)-1-oxo-3a,4-dihydro-3H-oxazolo[4,3-c][1,4]benzoxazin-7-yl]sulfonyl]piperazin-1-yl]-6-chloro-4-pyridyl]-difluoro-methyl]-N-[2-[1-(2-aminoethyl)pyrrolidin-1-ium-1-yl]ethyl]cyclohexanecarboxamide; chloride], for which the minimum inhibitory concentration (MIC) in data set [1] came to 2.8 µg/mL; in data set [2] it was 2.85 µg/mL.
